Format in all cases: cell-based
Test [1] relates to histamine release by mastocytes. Nature of the test: Release of histamine by mastocytes stimulated with substance P (ELISA). As to conditions: 10 nM calcium; 10 μM substance P. The protocol: The mastocytes were then stimulated with 10 μM substance P for 15 minutes. At the end of incubation, the release of histamine was quantified by ELISA.
(§1) The results were analyzed statistically by a Student's t-test.

For test [2], the system named is PGE2 production by human keratinocytes (NCTC-2544 cell line). The test can be described thus: Production of PGE2 by PMA-stimulated keratinocytes (ELISA). The settings on record: 10^−6 M indomethacin, 0.1 μg/ml PMA. (In general: In an ELISA, binding on a coated surface is turned into a signal by an enzyme label.)
Test [3] deals with laminin-5 (subunit γ2) gene expression in normal human keratinocytes. Nature of the test: Gene expression of laminin-5 (subunit γ2) in keratinocytes, real-time RT-PCR. The settings on record: 5 ng/ml TGFβ1; 48 hours. The protocol: (§2) Normal human keratinocytes were incubated for 48 hours in the presence of the avocado extract concentrated in polyphenols (AV) at concentrations of 0.001% and 0.005% (w/v of active material) or 5 ng/ml TGFβ1 (reference).
(§3) The gene expression of MMP9 and laminin-5 (subunit γ2) was studied by real-time RT-PCR.
(§4) The results were analyzed statistically by a one-factor ANOVA followed by a Dunnett's test: ns (not significant) p>0.05; *p<0.05; ***p<0.001.

Test [4] deals with MMP9 gene expression in normal human keratinocytes. Nature of the test: Gene expression of MMP9 in keratinocytes, real-time RT-PCR. As to conditions: 5 ng/ml TGFβ1; 48 hours. The protocol:
as §2, §3, §4
(Real-time PCR tracks product formation cycle by cycle.)

In test [5] the test system is IL8 production by human keratinocytes (NCTC-2544 cell line). Nature of the test: Production of IL8 by PMA-stimulated keratinocytes (ELISA). As to conditions: 10^−7 M dexamethasone, 0.1 μg/ml PMA. On the procedure: The cells were then treated with 0.1 μg/ml phorbol myristate acetate (PMA) for 24 hours, always in the presence of AV or the references.
At the end of the treatment, the quantities of interleukin 8 (IL8) and prostaglandin E2 (PGE2) secreted were measured by ELISA in the culture supernatants.
as §1

Test [6] relates to Normal human epidermal melanocytes. Nature of the test: Melanin production by melanocytes stimulated by NDP-MSH. As to conditions: 0.25 mM kojic acid; 10^−7 M NDP-MSH; 240 hours. On the procedure:
After 240 hours of incubation, melanin was extracted from the cells and quantified by spectrophotometry. The results were analyzed statistically by a Student's t-test.

For the molecule `[Ca+2]` [Calcium, calcium], in test [1], the Histamine was 21.8 ± 1.0 ng/mL and the “Inhibition of histamine release” value is given as −85% p < 0.01.

In test [2], `COc1ccc2c(c1)c(CC(=O)O)c(C)n2C(=O)c1ccc(Cl)cc1` [Indomethacin, indomethacin] had a PGE2 of 0.039 ± 0.0 ng/mL. For the same molecule, 1 µM produced 100% inhibition in test [2] (Homo sapiens, NCTC-2544).

With “TGFβ1: 5 ng/ml TGFβ1 (reference) in keratinocyte migration marker test”, in test [3], the “Laminin-5 gene expression (relative quantity)” value came out at 11.33 and the “Laminin-5 gene expression, change versus control cells” value is recorded as “+1033% ***”. In test [4], the “MMP9 gene expression (relative quantity)” value turned out to be 19.84 and the “MMP9 gene expression, change versus control cells” value is on record as “+1884% ***”.

For the molecule `C[C@@H]1C[C@H]2[C@@H]3CCC4=CC(=O)C=C[C@]4(C)[C@@]3(F)[C@@H](O)C[C@]2(C)[C@@]1(O)C(=O)CO` [Dexamethasone, dexamethasone], in test [5], the IL8 was 7.4 ± 0.8 ng/mL. In addition, the inhibition (in general, the percentage by which the read-out fell short of the control) at 0.1 µM in test [5] (Homo sapiens, NCTC-2544) is 85%.

In the case of `O=c1cc(CO)occ1O` [Kojic acid, kojic acid], the “Change in melanin versus stimulated control” value in test [6] is reported as −32% p < 0.001.
